Laboratory results as given in article PMC9468151, “Identification of a binding site on soluble RANKL that can be targeted to inhibit soluble RANK-RANKL interactions and treat osteoporosis” (Nature Communications, 2022).
Values joined by “and” are separate entries in the source; they are usually repeats but may differ in a detail not shown here. Identical values can stand only once.

Experiments:
[1] = tested on: sRANKL induced osteoclast differentiation; test: In vitro anti-osteoclastogenesis activity determination (TRAP staining); format: cell-based, mouse; parameters: key to inhibition of osteoclastogenesis, dose-response (fig. S2a): % inhibition = 100 − (treated−unstimulated)/(untreated−unstimulated)×100; conditions: for IC50: read-out: OC IC50 (anti-osteoclastogenesis activity); for inhibition of osteoclastogenesis, dose-response (fig. S2a): three replicate columns
Experimental: Mouse osteoclasts were cultured according to the previously reported protocols. BMMs were plated in 96-well plates at a density of 6 × 10^3 cells/well with complete medium containing 10 ng/mL M-CSF. The following day, cells were then stimulated with 100 ng/mL sRANKL in the presence or absence of compounds with different concentrations every 2 days until osteoclasts formed. In order to calculate IC50, we set 9 concentrations for each compound and untreated and non-sRANKL unstimulating group as controls, each with triplicated repeated wells. After 5 days, cells were fixed with 4% paraformaldehyde and then applied TRAP-staining to identify osteoclasts by using the TRAP-staining kit. Osteoclasts number (OC No.) in each well was counted and the percentage of inhibition ratio was calculated as follows:1 OCinhibitoryratio%=100−OCNo.treated−OCNo.unstimulating/OCNo.untreated−OCNo.unstimulating×100%
The dosages and their correspondent osteoclastogenesis inhibitory activity curve and IC50 value were conducted by using Nonlinear regression (curve fit) analytic procedure in GraphPad Prism 8. Photographs of individual wells were taken using Leica microscope.

RAW264.7 cells = test: In vitro cytotoxicity assay (MTT); format: cell-based, mouse; conditions: RAW264.7, MTT
Experimental: MTT assay was used to determine cell viability. RAW264.7 cells in the logarithmic growth phase were cultured in 96-well plates with 6 × 10^3 cells in each well and incubated for 24 h. The surviving cells were then determined by MTT method. […] Cell growth inhibition ratio was calculated as follows: Cellgrowthinhibitionratio%=ODvehicle−ODtreaed/ODvehicle×100%
Cell cytotoxicity CC50 value were conducted by using Nonlinear regression (curve fit) analytic procedure in GraphPad Prism 8.

[2] = BMMs, M-CSF + 100 ng/mL sRANKL, 5 days, TRAP staining

SMILES	IC50 [1, 2] [nM]	inhibition of osteoclastogenesis, dose-response (fig. S2a) ([1]; conc. 0.0023464 μM)	inhibition of osteoclastogenesis, dose-response (fig. S2a) ([1]; conc. 0.00774313 μM)	inhibition of osteoclastogenesis, dose-response (fig. S2a) ([1]; conc. 0.0255523 μM)	inhibition of osteoclastogenesis, dose-response (fig. S2a) ([1]; conc. 0.0843226 μM)	inhibition of osteoclastogenesis, dose-response (fig. S2a) ([1]; conc. 0.278265 μM)	inhibition of osteoclastogenesis, dose-response (fig. S2a) ([1]; conc. 0.918274 μM)	inhibition of osteoclastogenesis, dose-response (fig. S2a) ([1]; conc. 3.0303 μM)	inhibition of osteoclastogenesis, dose-response (fig. S2a) ([1]; conc. 10 μM)	inhibition of osteoclastogenesis, dose-response (fig. S2a) ([1]; conc. 33 μM)	CC50 (RAW264.7 cells) [µM]	OC IC50 (anti-osteoclastogenesis activity) [1, 2]
COC(=O)c1cccc(NC(=O)C(=NNc2ccccc2C(=O)O)C(C)=O)n1 [S3-15-2]	1260	11.9718 and 6.338 and 4.225	7.394 and 8.4507 and 9.155	9.507 and 6.338 and 9.155	31.6901 and 21.831 and 24.2958	33.0986 and 27.4648 and 28.169	47.1831 and 47.5352 and 44.3662	59.1549 (2×) and 58.0986	72.8873 and 71.1268 and 70.4225	88.3803 and 89.4366 and 88.7324	> 100	
CC(=O)C(=NNc1ccc(O)cc1C(=O)O)C(=O)Nc1ccccn1 [S3-15-3]	3590	7.632 and 19.0789 and 12.7632	4.079 and 5.263 and 2.105	2.105 and -3.421 and -3.026	11.579 and 29.3421 and 8.026	15.5263 and 26.9737 and 19.0789	44.7368 and 36.4474 and 37.6316	52.6316 and 53.8158 and 45.1316	64.4737 and 56.1842 and 57.3684	73.9474 and 72.3684 and 70.7895	62.8	
CC(C)OC(=O)C(=NNc1ccccc1C(=O)O)C(=O)Nc1ccccn1 [S3-15-4]	620	19.4737 and 18.6842 and 17.1053	16.7105 and 16.3158 and 13.9474	17.8947 and 11.579 and 18.2895	16.7105 and 20.2632 and 17.8947	34.8684 and 32.5 and 38.8158	53.8158 and 43.9474 and 58.5526	73.9474 and 71.9737 and 70.3947	88.5526 and 83.421 and 86.579	100	57.2	
CC(=O)C(=NNc1ccccc1C(=O)O)C(=O)Nc1nc2ccccc2s1 [S3-16]	730		3.543 and 4.724 and 0.7874	9.449 and 8.661 (2×)	16.9291 and 24.4094 and 12.9921	30.315 and 29.5276 and 31.1024	51.1811 and 52.7559 and 54.7244	73.2284 and 71.6535 and 75.1968	82.6772 and 95.2756 and 99.2126	100	69.2	
CC(=O)C(=NNc1ccccc1C(=O)O)C(=O)N1CCc2ccccc2C1 [S3-17]	6740	4.167 and -4.167 and 1.19	7.7381 and 11.9048 and 8.036	13.9881 and 14.2857 and 19.3452	22.9167 and 21.7262 and 26.4881	30.3571 and 29.4643 and 30.6548	35.1191 and 33.0357 and 33.6309	38.6905 and 40.1786 and 34.5238	50.8929 and 50 and 48.8095	63.3929 and 63.6905 and 75.5952	82.1	
CC(=O)C(=NNc1ccccc1C(=O)O)C(=O)N1CCOCC1 [S3-18]											52.6	Inactive
CCOC(=O)c1sc(NC(=O)C(=NNc2c(C(=O)O)cccc2C(=O)O)C(C)=O)nc1C [S3-19]	9490	10.2719 and 4.834 (2×)	5.287 and 4.834 and 5.74	0.7553 and 1.208 and 3.021	5.74 and 4.381 and -1.0574	18.8822 and 16.6163 and 15.2568	19.7885 and 17.0695 and 17.5227	26.1329 and 38.3686 and 35.1964	44.713 (2×) and 40.6344	74.1692 and 70.997 and 80.0604	77.9	
CC(=O)C(=NNc1ccccc1C(=O)O)C(=O)Nc1nc(C)c(C(=O)N2CCOCC2)s1 [S3-20]	8710	-0.2448 and 3.06 and 1.591	8.935 and 4.896 and 2.326	5.263 and 4.529 and 0.8568	5.63 and 2.326 and 1.591	4.529 and 3.06 and 3.794	5.63 and 5.263 (2×)	5.263 and 7.466 and 5.998	58.8739 and 58.1395 and 58.5067	97.4296 and 97.0624 and 96.328	> 100	
CCOC(=O)c1sc(NC(=O)C(=NNc2ccc(OC)cc2C(=O)O)C(C)=O)nc1C [S3-21]	950	1.224 and -3.182 and 3.06	7.099 and 0.1224 and 2.326	7.099 and 3.427 and 5.998	11.5055 and 14.0759 and 15.9119	35.7405 and 36.4749 and 35.0061	54.8348 and 53.7332 and 55.5692	59.2411 and 62.1787 and 63.2803	74.6634 and 76.8666 and 77.9682	100	> 100	
CCOC(=O)c1sc(NC(=O)C(=NNc2ccccc2C(=O)O)C(=O)OC(C)C)nc1C [S3-22]	400	1.224 and 0.8568 and 0.4896	0.8568 and 1.958 and 3.427	4.896 and 10.0367 and 5.263	26.1934 and 25.0918 and 21.4198	44.1861 and 41.6157 and 42.7173	58.8739 and 65.1163 and 60.7099	88.2497 and 86.7809 and 89.3513	100	100	81.2	
